Assay [1] addresses T1, OdinFtsZ1 (Candidatus Odinarchaeum yellowstonii, UniProt A0AAF0ID74).
T1 construct: full length (363 residues by primer name), synthetic gene, 6His-bdSUMO tag cleaved by Ulp protease, E. coli BL21(DE3); residues 34-332 modelled in cryo-EM
T1 sequence (A0AAF0ID74 1-360): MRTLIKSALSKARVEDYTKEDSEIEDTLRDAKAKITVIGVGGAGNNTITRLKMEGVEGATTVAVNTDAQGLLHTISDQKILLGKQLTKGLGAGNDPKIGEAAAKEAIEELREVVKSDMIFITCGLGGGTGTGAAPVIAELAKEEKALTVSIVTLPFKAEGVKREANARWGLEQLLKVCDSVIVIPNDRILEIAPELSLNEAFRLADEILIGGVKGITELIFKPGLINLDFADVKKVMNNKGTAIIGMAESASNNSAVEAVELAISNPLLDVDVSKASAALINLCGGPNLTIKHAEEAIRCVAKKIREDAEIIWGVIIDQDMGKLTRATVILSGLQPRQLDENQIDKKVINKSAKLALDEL
The assay is described as follows: cryo-EM structure of filament. It counts as binding. The note with it: […] GMPCPP, […] MgCl2, pH […], on ice; nucleotide pocket at subunit interface; map resolution […] A.

The target in assay [2] is T2, OdinFtsZ2 (Candidatus Odinarchaeum yellowstonii, UniProt A0AAF0D3V8).
T2 construct: gene ftsZ; full length, synthetic gene, 6His-bdSUMO tag cleaved by Ulp protease, E. coli BL21(DE3); assembles into stacked rings
T2 sequence (A0AAF0D3V8 1-402): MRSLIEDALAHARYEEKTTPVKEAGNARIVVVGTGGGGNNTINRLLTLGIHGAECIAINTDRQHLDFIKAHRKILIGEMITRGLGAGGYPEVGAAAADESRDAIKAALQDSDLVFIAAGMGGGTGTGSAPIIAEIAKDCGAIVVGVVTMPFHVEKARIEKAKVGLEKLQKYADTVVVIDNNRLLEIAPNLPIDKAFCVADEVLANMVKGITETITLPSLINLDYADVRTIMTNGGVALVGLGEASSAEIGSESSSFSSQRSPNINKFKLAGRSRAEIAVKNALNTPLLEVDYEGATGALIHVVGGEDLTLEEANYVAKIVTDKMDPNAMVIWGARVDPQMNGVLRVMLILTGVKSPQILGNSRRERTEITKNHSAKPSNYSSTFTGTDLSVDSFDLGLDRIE
The assay is described as follows: […] degree light scattering and TEM / cryo-EM of polymerization. The note with it: […] GTP, […] Mg2+, pH […] KCl, […] °C; nucleotide-dependent assembly. It is filed as biochemical.

The target of assay [3] is T1, OdinFtsZ1. The assay is described as follows: light scattering and sedimentation assay of polymerization. The note with it: […] GTP, […] Mg2+, pH […] KCl, […] °C. It counts as biochemical.
For assay [4], the target named is T2, OdinFtsZ2. The assay is described as follows: negative-stain TEM of polymerization. It is filed as biochemical. The settings on record: […] nucleotide, […] MgCl2, pH […] KCl, […] °C.
Assay [5] has as its target OdinSepF (Candidatus Odinarchaeum yellowstonii LCB_4). The assay can be described thus: SEC-MALS; Superdex 75 Increase 10/300 GL, HK50 buffer (50 mM HEPES pH 7.4, 50 mM KCl), room temperature, OdinSepF 2 mg/ml, 100 μl.

For `Nc1nc2c(ncn2[C@@H]2O[C@H](COP(=O)(O)CP(=O)(O)OP(=O)(O)O)[C@@H](O)[C@H]2O)c(=O)[nH]1` [GMPCPP], the “cryo-EM structure of filament” value on OdinFtsZ1 [1] was “A non-protein density was detected within the nucleotide-binding pocket using Servalcat”.
Take `Nc1nc2c(ncn2[C@@H]2O[C@H](COP(=O)(O)OP(=O)(O)OP(=O)(O)O)[C@@H](O)[C@H]2O)c(=O)[nH]1` [GTP]: on OdinFtsZ2 [2], the “90 degree light scattering and TEM / cryo-EM of polymerization” value is “OdinFtsZ2 formed highly curved, stacked ring-like structures when provided with GTP or GTPγS”. The “light scattering and sedimentation assay of polymerization” value at OdinFtsZ1 [3] is “GTP addition significantly enhanced the amount of OdinFtsZ1 in the pellet fraction”.
Regarding `Nc1nc2c(ncn2[C@@H]2O[C@H](COP(=O)(O)OP(=O)(O)OP(O)(O)=S)[C@@H](O)[C@H]2O)c(=O)[nH]1` [GTPγS], the “negative-stain TEM of polymerization” value on OdinFtsZ2 [4] is given as “OdinFtsZ2 formed highly curved, stacked ring-like structures when provided with GTP or GTPγS”.
In assay [5], OdinSepF (natural protein) yielded a stoichiometry N of 2.

The values are drawn from PMC12583498, “Distinct filament morphology and membrane tethering features of the dual FtsZ paralogs in Odinarchaeota” (The EMBO journal, 2025).
